Measurements from patent publication US9409952B2, “Peptide-compound cyclization method” (Chugai Seiyaku Kabushiki Kaisha, priority 2011, dated 2016).
Read-outs that look alike come from different tables or passages of the source. Starred links: 1 amine or outer side, 2 acyl side, 3 side chain; linkers in the order of their positions; H or OH if unused. Positions of bridges follow the written chain, without caps; N, C: chain ends. Non-standard residues stand in square brackets, D forms with d. Residues, ends and D or L forms follow the SMILES beside them. *: point of attachment. Phe(4-(CH2)5CO) = O=C([C@H](Cc1ccc(CCCCCC(=O)[*:3])cc1)N[*:1])[*:2]; Phe(3-(CH2)4CO) = O=C([C@H](Cc1cccc(CCCCC(=O)[*:3])c1)N[*:1])[*:2]; NMeF = CN[C@@H](Cc1ccccc1)C(=O)O; NMeI = CC[C@H](C)[C@H](NC)C(=O)O; NMeβAla = CN(CCC(=O)[*:2])[*:1]; NMeL = CN[C@@H](CC(C)C)C(=O)O; NMeV = CN[C@H](C(=O)O)C(C)C; NMeA = CN[C@@H](C)C(=O)O; Piperidide = C1CCN(*)CC1; dNMeA = CN[C@H](C)C(=O)O; Sar = CNCC(=O)O; tBu = CC(C)(C)*

What was measured:
[1] = Metabolic stability in human hepatic microsome; format: in vitro ADME; details: microsomes
[2] = PAMPA (parallel artificial membrane permeability assay); format: in vitro ADME; details: for Papp at 18 hours, 50 µM: PAMPA
Method in brief: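 Artificial membrane was 10% (w/v) egg lecithin plus 0.5% (w/v) cholesterol in dodecane on a PVDF filter. A 10 mM DMSO stock was added at 0.5% (v/v) to donor buffer (50 mM MOPSO, pH 6.5, 5.0% glycocholic acid). After 18 h at 37 °C, LC/MS or LC/UV gave donor and acceptor levels for Pe.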

[3] = pH 7.4, human hepatic microsome, NADPH(+), read-out: CL NADPH(+)
[4] = membrane permeation rate (Pe), 50 mM MOPSO buffer pH 6.5 with 5.0% glycocholic acid, 37° C., 18 hours, read-out: iPAMPA Pe

| Compound | microsomal CLint at 1 uM [1, 3] | Papp at 18 hours, 50 µM [2, 4] | microsomal CLint at 1 uM ([1]; human, pH 7.4, CL NADPH(+)) | Papp at 18 hours, 50 µM ([2]; pH 6.5) | iPAMPA Pe ([2]; membrane permeation rate (Pe), 50 mM MOPSO buffer pH 6.5 with 5.0% glycocholic acid, 37° C., 18 hours) |
| --- | --- | --- | --- | --- | --- |
| CC(C)C[C@H]1C(=O)N(C)[C@@H](C(C)C)C(=O)N[C@@H](C(C)C)C(=O)N(C)CC(=O)N(C)[C@@H](C)C(=O)N[C@@H]([C@@H](C)O)C(=O)N(C)[C@@H](C)C(=O)N[C@H](C(=O)N2CCCCC2)CC(=O)N(C)[C@@H](C)C(=O)N(C)[C@@H](C)C(=O)N(C)[C@@H](Cc2ccccc2)C(=O)N[C@@H](C)C(=O)N1C [DP-410] ([NMeA][NMeA][NMeF]A[NMeL][NMeV]V[Sar][NMeA]T[NMeA]D-Piperidide; lactam N-12) | 19 µL/min/mg | 1.4 ×10⁻⁶ cm/s |  |  |  |
| CC[C@H](C)[C@@H]1NC(=O)[C@H](CC(C)C)N(C)C(=O)[C@H](C(C)C)N(C)C(=O)[C@H](C)NC(=O)[C@H](C)N(C)C(=O)[C@H](Cc2ccccc2)NC(=O)[C@H]([C@@H](C)O)NC(=O)[C@H](CC(C)C)N(C)C(=O)[C@H](CC(C)C)N(C)C(=O)[C@H](C)N(C)C(=O)C[C@@H](C(=O)N2CCCCC2)NC1=O [DP-112] ([NMeA][NMeL][NMeL]TF[NMeA]A[NMeV][NMeL]ID-Piperidide; lactam N-11) |  |  | 49 µL/min/mg | 35 ×10⁻⁶ cm/s |  |
| CC[C@H](C)[C@H](NC(=O)[C@@H](NC(=O)[C@H](Cc1ccccc1)NC(=O)[C@H](CC(C)C)N(C)C(=O)[C@@H](NC(=O)[C@@H]1CC(=O)N[C@@H](C)C(=O)N(C)[C@@H](C)C(=O)N(C)[C@@H](Cc2ccccc2)C(=O)N[C@@H]([C@@H](C)O)C(=O)N(C)[C@@H](Cc2ccccc2)C(=O)N[C@@H](CC(C)C)C(=O)N2CCC[C@H]2C(=O)N1)[C@@H](C)CC)C(C)C)C(=O)N1CCCCC1 [DP-922] (A[NMeA][NMeF]T[NMeF]LPDI[NMeL]FVI-Piperidide; lactam N-8) |  |  | 70 µL/min/mg | 0.12 ×10⁻⁶ cm/s |  |
| CC[C@H](C)[C@@H]1NC(=O)[C@H](CC(C)C)N(C)C(=O)[C@H](Cc2ccccc2)NC(=O)[C@H](C)N(C)C(=O)C[C@@H](C(=O)N(C)[C@@H](Cc2ccccc2)C(=O)N(C)[C@@H](Cc2ccccc2)C(=O)N[C@@H](C)C(=O)N2CCCCC2)NC(=O)[C@H](C(C)C)N(C)C(=O)[C@H](C)N(C)C(=O)[C@H](C)N(C)C(=O)[C@H]([C@@H](C)O)NC(=O)CN(C)C1=O [DP-394] ([NMeA]F[NMeL]I[Sar]T[NMeA][NMeA][NMeV]D[NMeF][NMeF]A-Piperidide; lactam N-10) | 10 µL/min/mg | 22 ×10⁻⁶ cm/s |  |  |  |
| CC[C@H](C)[C@H](NC(=O)[C@H](CC(C)C)NC(=O)[C@H](CC(C)C)N(C)C(=O)[C@@H](NC(=O)[C@@H]1CCCN1C(=O)[C@@H]1CC(=O)N(C)CCC(=O)N[C@@H](CC(C)C)C(=O)N(C)[C@@H](CC(C)C)C(=O)N[C@@H]([C@@H](C)O)C(=O)N(C)[C@@H](C)C(=O)N[C@@H]([C@@H](C)CC)C(=O)N(C)[C@@H](CC(C)C)C(=O)N(C)[C@@H](CC(C)C)C(=O)N1)[C@@H](C)CC)C(=O)N1CCCCC1 [DP-937] ([NMeβAla]L[NMeL]T[NMeA]I[NMeL][NMeL]DPI[NMeL]LI-Piperidide; lactam N-9) | 164 µL/min/mg | 0.47 ×10⁻⁶ cm/s |  |  |  |
| CC[C@H](C)[C@@H]1NC(=O)[C@H](Cc2ccccc2)N(C)C(=O)[C@H](Cc2ccccc2)NC(=O)[C@H](CC(C)C)N(C)C(=O)[C@H](C(C)C)NC(=O)[C@H](CC(C)C)NC(=O)CCCCc2cccc(c2)C[C@@H](C(=O)N2CCCCC2)NC(=O)[C@H]([C@@H](C)O)NC(=O)[C@H](CC(C)C)NC(=O)[C@H](C)N(C)C1=O [DP-894] (LV[NMeL]F[NMeF]I[NMeA]LT[Phe(3-(CH2)4CO)]-Piperidide; lactam N-10) | 71 µL/min/mg | 0.46 ×10⁻⁶ cm/s |  |  |  |
| CC[C@H](C)[C@H]1C(=O)N[C@H](C(=O)N2CCCCC2)Cc2ccc(cc2)CCCCCC(=O)N[C@@H](CC(C)C)C(=O)N2CCC[C@H]2C(=O)N[C@@H](C(C)C)C(=O)N[C@@H](Cc2ccccc2)C(=O)N(C)CC(=O)N[C@@H](CC(C)C)C(=O)N[C@@H](C)C(=O)N1C [DP-879] (LPVF[Sar]LA[NMeI][Phe(4-(CH2)5CO)]-Piperidide; lactam N-9) | 239 µL/min/mg | 35 ×10⁻⁶ cm/s |  |  |  |
| CC[C@H](C)[C@@H]1NC(=O)[C@H](CC(C)C)N(C)C(=O)[C@H](Cc2ccccc2)N(C)C(=O)CCCCc2cccc(c2)C[C@@H](C(=O)N2CCCCC2)NC(=O)[C@H](CC(C)C)N(C)C(=O)[C@H](C)N(C)C(=O)[C@H]([C@@H](C)O)NC(=O)[C@H](Cc2ccccc2)N(C)C(=O)[C@H](C)N(C)C1=O [DP-836] ([NMeF][NMeL]I[NMeA][NMeF]T[NMeA][NMeL][Phe(3-(CH2)4CO)]-Piperidide; lactam N-9) | 552 µL/min/mg | 18 ×10⁻⁶ cm/s |  |  |  |
| CC[C@H](C)[C@H]1C(=O)N[C@H](C(=O)N2CCCCC2)CC(=O)N(C)[C@H](C)C(=O)N(C)[C@@H](Cc2ccccc2)C(=O)N(C)[C@@H](CC(C)C)C(=O)N[C@@H]([C@@H](C)O)C(=O)N(C)CC(=O)N[C@@H](COC(C)(C)C)C(=O)N(C)[C@@H](CC(C)C)C(=O)N1C [DP-81] ([dNMeA][NMeF][NMeL]T[Sar]S(tBu)[NMeL][NMeI]D-Piperidide; lactam N-9) |  |  | 38 µL/min/mg | 25 ×10⁻⁶ cm/s |  |
| CC[C@H](C)[C@@H]1NC(=O)[C@H](CC(C)C)N(C)C(=O)[C@H](C)N(C)C(=O)[C@H]([C@@H](C)O)NC(=O)[C@H](Cc2ccccc2)N(C)C(=O)[C@H](C)N(C)C(=O)[C@@H](C)N(C)C(=O)C[C@@H](C(=O)N(C)[C@@H](Cc2ccccc2)C(=O)N(C)[C@@H](Cc2ccccc2)C(=O)N[C@@H](C)C(=O)N2CCCCC2)NC(=O)[C@H](C(C)C)N(C)C(=O)[C@H](CC(C)C)N(C)C1=O [DP-300] ([dNMeA][NMeA][NMeF]T[NMeA][NMeL]I[NMeL][NMeV]D[NMeF][NMeF]A-Piperidide; lactam N-10) | 166 µL/min/mg | 8.2 ×10⁻⁶ cm/s |  |  |  |
| CC[C@H](C)[C@H]1C(=O)N[C@@H](Cc2ccccc2)C(=O)N[C@@H]([C@@H](C)O)C(=O)N2CCC[C@H]2C(=O)N[C@@H](Cc2ccccc2)C(=O)N[C@H](C(=O)N2CCCCC2)CC(=O)N(C)CCC(=O)N(C)[C@@H](CC(C)C)C(=O)N(C)[C@@H](CC(C)C)C(=O)N[C@@H](CC(C)C)C(=O)NCC(=O)N1C [DP-239] ([NMeβAla][NMeL][NMeL]LG[NMeI]FTPFD-Piperidide; lactam N-11) | 109 µL/min/mg | 25 ×10⁻⁶ cm/s |  |  |  |
| CC[C@H](C)[C@@H]1NC(=O)[C@@H](C(C)C)NC(=O)C[C@@H](C(=O)N(C)[C@@H](Cc2ccccc2)C(=O)N[C@@H](C)C(=O)N2CCCCC2)NC(=O)[C@H](Cc2ccccc2)N(C)C(=O)[C@H](C)NC(=O)[C@H](CC(C)C)N(C)C(=O)[C@H](C)N(C)C(=O)[C@H]([C@@H](C)O)NC(=O)[C@H](C)N(C)C(=O)[C@H](C(C)C)N(C)C1=O [DP-294] ([dV]I[NMeV][NMeA]T[NMeA][NMeL]A[NMeF]D[NMeF]A-Piperidide; lactam N-10) |  |  | 35 µL/min/mg | 17 ×10⁻⁶ cm/s |  |
| CC[C@H](C)[C@H](NC(=O)[C@H](Cc1ccccc1)N(C)C(=O)[C@@H]1CC(=O)N[C@@H](C)C(=O)N[C@@H](CC(C)C)C(=O)N(C)[C@@H]([C@@H](C)CC)C(=O)N[C@@H](C(C)C)C(=O)N(C)[C@@H](Cc2ccccc2)C(=O)N[C@@H](CC(C)C)C(=O)N(C)[C@@H](Cc2ccccc2)C(=O)N1)C(=O)N1CCCCC1 [DP-573] (AL[NMeI]V[NMeF]L[NMeF]D[NMeF]I-Piperidide; lactam N-8) | 72 µL/min/mg |  |  |  | 1.0E−07 |
| CC(C)C[C@H]1C(=O)N[C@@H](C)C(=O)N(C)[C@@H](Cc2ccccc2)C(=O)N(C)[C@@H](C)C(=O)N(C)[C@@H](Cc2ccccc2)C(=O)N[C@H](C(=O)N(C)[C@@H](Cc2ccccc2)C(=O)N[C@@H](C)C(=O)N2CCCCC2)CC(=O)N(C)[C@H](C)C(=O)N(C)[C@@H](C)C(=O)N(C)[C@@H](CC(C)C)C(=O)N[C@@H]([C@@H](C)O)C(=O)N(C)[C@@H](C)C(=O)N1C [DP-347] ([dNMeA][NMeA][NMeL]T[NMeA][NMeL]A[NMeF][NMeA][NMeF]D[NMeF]A-Piperidide; lactam N-11) | 40 µL/min/mg | 25 ×10⁻⁶ cm/s |  |  |  |
| CC(C)C[C@@H]1NC(=O)[C@H](Cc2ccccc2)N(C)C(=O)[C@H]([C@@H](C)O)NC(=O)[C@H](Cc2ccccc2)N(C)C(=O)[C@H](C)N(C)C(=O)[C@H](CC(C)C)N(C)C(=O)C[C@@H](C(=O)N2CCCCC2)NC(=O)[C@@H]2CCCN2C1=O [DP-688] ([NMeL][NMeA][NMeF]T[NMeF]LPD-Piperidide; lactam N-8) |  |  | 23 µL/min/mg | 17 ×10⁻⁶ cm/s |  |
| CC[C@H](C)[C@H]1C(=O)N[C@@H](Cc2ccccc2)C(=O)N(C)[C@@H](Cc2ccccc2)C(=O)N[C@@H]([C@@H](C)O)C(=O)N2CCC[C@H]2C(=O)N[C@@H](CC(C)C)C(=O)N[C@H](C(=O)N2CCCCC2)Cc2cccc(c2)CCCCC(=O)N[C@@H](CC(C)C)C(=O)N(C)[C@@H](CC(C)C)C(=O)N[C@@H](C)C(=O)N1C [DP-897] (L[NMeL]A[NMeI]F[NMeF]TPL[Phe(3-(CH2)4CO)]-Piperidide; lactam N-10) | 56 µL/min/mg | 2.4 ×10⁻⁶ cm/s |  |  |  |
| CC[C@H](C)[C@@H]1NC(=O)[C@H](Cc2ccccc2)N(C)C(=O)CN(C)C(=O)C[C@@H](C(=O)N2CCCCC2)NC(=O)[C@H](C(C)C)N(C)C(=O)[C@H](COC(C)(C)C)NC(=O)[C@H](CC(C)C)N(C)C(=O)[C@H](Cc2ccccc2)N(C)C(=O)CN(C)C(=O)[C@H]([C@@H](C)O)NC(=O)[C@H](CC(C)C)N(C)C1=O [DP-168] ([Sar][NMeF]I[NMeL]T[Sar][NMeF][NMeL]S(tBu)[NMeV]D-Piperidide; lactam N-11) | 85 µL/min/mg | 23 ×10⁻⁶ cm/s |  |  |  |
